Measured values: US20110237632A1, “ANTIFOULING COMBINATION COMPRISING 4-BROMO-2-(4- CHLOROPHENYL)-5-(TRIFLUOROMETHYL)-1H-PYRROLE-3-CARBONITRILE” (priority 2008, published 2011)

System: Tribonema sp. CCAP880/2
Test: Poison Plate Assay (algal growth inhibition, MIC and synergy index)
Assay type: cell-based
Settings: 336 h, BG11 liquid medium, 24-well plates, 21° C., evaluation after 2 weeks of exposure, total ppm of combination at given ratio (I) to (II), read-out: MIC-values in ppm (minimum inhibitory concentration)
Description: • General procedure: to each well of a 24-well microtiter plate, 1990 μl BG11 medium containing the test compounds in one of the concentrations of a dose series is added. The liquid freshwater mineral medium is inoculated by adding an aliquot of an actively growing, 3 week old liquid BG11 culture of algae and incubated at 21° C., 65% relative humidity, 1000 Lux 16 hr/day. The growth is evaluated after two weeks. • Test compounds: 4-bromo-2-(4-chloro-phenyl)-5-(trifluoromethyl)-1H-pyrrole-3-carbonitrile as component (I) butylBIT as component (II); • Stock solution: 8000 and 80.000 ppm in DMSO
• Test combinations: • Concentrations: 1.6-1.2-0.9-0.68-0.51-0.38-0.29-0.21-0.16-0.12-0.09-0.07 ppm • Culture medium: algae: BG 11 liquid mineral medium • Experimental set up: 24-well plates • Species of algae: Tribonema sp. CCAP880/2 • Inoculum: algae: […] of a 1/10 dilution in BG 11 of a two week old culture • Culture conditions: 21° C., 65% relative humidity, 1000 lux, 16 hour photoperiod • Evaluation: algae: after 2 weeks of exposure
Synergism between component (I) and one of the components (II) was determined by a commonly used and accepted method described by Kull F. C. et al. in Applied Microbiology, 9, 538-541 (1961) using the Synergy Index, which is calculated as follows for two compounds A and B: […]

**Q.** With `CCCCn1sc2ccccc2c1=O` [(I) + (II) 0 + 100, 2-butyl-1,2-benzisothiazol-3(2H)one] as the molecule, how does the MIC read?
**A.** 2.1 µg/mL
